Assay results from publication PMC11302688, “The Effect of Replication Protein A Inhibition and Post-Translational Modification on ATR Kinase Signaling” (Research Square, 2024).
Where two headings read alike, the source gives them in different places.

What was measured:
ATR-ATRIP = biological target: T1, ATR-ATRIP (Homo sapiens, UniProt P27694); test: Reconstituted ATR kinase assay (western blot of phosphorylation targets); type: biochemical; conditions: for ATR-dependent phosphorylation of RPA32 Ser33 and Thr21 / ATR-dependent phosphorylation of p53 Ser15: reconstituted reaction with ssDNA, RPA, TopBP1, ATR-ATRIP, western blot; for IC50: fully reconstituted ATR kinase reaction
T1 construct: His (C); purchased Eurofins DiscoverX 14–953
Source text: The minimal requirements to reconstitute ATR signaling in vitro are ssDNA, RPA, TopBP1, and ATR-ATRIP, and a phosphorylation target[51]–[54]. We used a similar experimental design with purified RPA, TopBP1, p53, and ATR-ATRIP, and reconstituted ATR activation and signaling using an M13mp18 ssDNA plasmid (Figure S1A-B). It has been reported that TopBP1 can stimulate ATR activity independent of RPA and in the presence or absence of a variety of DNA substrates at specific protein and salt concentrations, though the physiological relevance is unknown. We, therefore, first established physiological experimental conditions to reflect the dependence of ATR kinase activity on RPA, ssDNA, and TopBP1 by monitoring the phosphorylation of the ATR target p53 at Ser15. Low, background levels of ATR-dependent p53 phosphorylation are observed with various combinations of ssDNA, RPA, and TopBP1, however, as expected, maximal activation is observed only in the presence of all three (Fig. 1A–B). Importantly, p53 phosphorylation under our assay conditions was dependent upon RPA and ssDNA. […] (Fig. 1A–B). The RPA70 OB-F domain interacts with p53, and this interaction is thought to facilitate the recruitment of p53 for ATR phosphorylation. p53 also has weak ssDNA binding affinity that could influence it as a substrate for ATR, so we next compared the phosphorylation of wild-type (WT) p53 with that of the DNA-binding-impaired p53 R175H mutant. […] We then evaluated the impact of chemical RPA inhibition on ATR-dependent p53 phosphorylation in the reconstituted reactions. We first assessed the activity of RPA inhibitors that block the RPA-ssDNA interaction (RPA-DBi).
Kinase assays were performed in 15 mM HEPES pH 7.9, 30 mM KCl, 3 mM MgCl2, 5% glycerol, 1x phosphatase inhibitor cocktail 2 (Sigma-Aldrich, P5726), 0.5 mM DTT. RPAi were suspended in 100% DMSO, and the DMSO concentration in the final reaction mixture was kept constant at 5%. In a typical reaction (20 μL), 20 ng ATR-ATRIP, 20 nM TopBP1, 20 nM RPA, and 40 nM p53 were initially incubated on ice for 15 min. Reactions were initiated by the addition of 100 μM ATP and 1 ng M13mp18 ssDNA plasmid and incubated at 37°C for 1 hr. Reactions were quenched by the addition of 6x Laemmli buffer and brief boiling at 95°C. For reactions with RPAi, inhibitors were added for the initial 15 min incubation on ice. For reactions with pRPA, the indicated proteins (same concentrations as above) were incubated with 0.5 ng/μL DNA-PK, 100 μM ATP, and 1 ng M13mp18 ssDNA plasmid for 30 min at 37°C. Reactions were moved back to ice and 100 nM NU7441 was added to inhibit further DNA-PK kinase activity (for subsequent ATR kinase reactions) or quenched with 6x Laemmli buffer and brief boiling at 95°C (for control reactions). The remaining components required for ATR kinase reaction were then added to each reaction as indicated and returned to 37°C for 1 hr before quenching in the same manner as above. Proteins were separated by SDS-PAGE and transferred to polyvinylidene difluoride (PVDF) membranes (Bio-Rad, 1620177). Immunoblotting for RPA32 pSer33 (Thermo Fisher Scientific, A300–246A), RPA32 pSer4/8 (Thermo Fisher Scientific, A300–245A), RPA32 (Thermo Fisher Scientific, PA5–2256), and TopBP1 pSer1138 (Thermo Fisher Scientific, PA5–114666) were conducted in Tris-buffered saline (TBS)/0.5% Tween20 and immunoblotting for p53 pSer15 (Cell Signaling Technology, 9284S), p53 (Cell Signaling Technology, 2524S), and RPA32 pThr21 (Thermo Fisher Scientific, PA5–104809) were conducted in TBS/0.1% Tween20. All membranes were blocked with 2% BSA in TBS/Tween20 and incubated rocking at 4°C overnight. Membranes were washed with TBS/Tween20 and incubated with the corresponding IgG-horseradish peroxidase (HRP) secondary antibody (Bio-Rad, 1706515 & 1706516) for two hours at room temperature with orbital shaking. […]

RPA [1] = biological target: T2, RPA (Homo sapiens, UniProt P27694); parameters: method as in PMID 25070753; conditions: cited from earlier work
T2 construct: His (C); made in house; host or cells: E. coli BL21(DE3)

[2] = tested on: ATR phosphorylation events; parameters: method as in PMID 25070753; conditions: cited from earlier work
RPA [3] = biological target: T2, RPA; conditions: read-out: in vitro RPA-DNA binding inhibition IC50; cited from earlier work
[4] = biological target: RPA (His-tagged heterotrimer RPA70/RPA32/RPA14) (UniProt P27694;P15927;P35244 1-616;1-270;1-121); test: EMSA; binding not disrupted by PAME 12.5-200 uM; PAME EMSA: 10 mM Tris pH 7.5, 10 mM NaCl, 10% glycerol, 25 C, 10 nM DNA, 7 nM (ssDNA) or 14 nM (duplex) RPA, 1% agarose; acetylation EMSA: 20 mM HEPES pH 7.8, 50 mM NaCl, 1 mM DTT, 5% DMSO, 0.001% NP-40, RT, 2.5 nM DNA, 6% native PAGE; conditions: protein: recombinant; tags: His (on RPA70, plasmid p11d-tRPA70-His); copies: 1;1;1; label: 5' IRDye700; single strand
Chain of RPA (His-tagged heterotrimer RPA70/RPA32/RPA14) (P27694 whole entry, chain 1 of 3): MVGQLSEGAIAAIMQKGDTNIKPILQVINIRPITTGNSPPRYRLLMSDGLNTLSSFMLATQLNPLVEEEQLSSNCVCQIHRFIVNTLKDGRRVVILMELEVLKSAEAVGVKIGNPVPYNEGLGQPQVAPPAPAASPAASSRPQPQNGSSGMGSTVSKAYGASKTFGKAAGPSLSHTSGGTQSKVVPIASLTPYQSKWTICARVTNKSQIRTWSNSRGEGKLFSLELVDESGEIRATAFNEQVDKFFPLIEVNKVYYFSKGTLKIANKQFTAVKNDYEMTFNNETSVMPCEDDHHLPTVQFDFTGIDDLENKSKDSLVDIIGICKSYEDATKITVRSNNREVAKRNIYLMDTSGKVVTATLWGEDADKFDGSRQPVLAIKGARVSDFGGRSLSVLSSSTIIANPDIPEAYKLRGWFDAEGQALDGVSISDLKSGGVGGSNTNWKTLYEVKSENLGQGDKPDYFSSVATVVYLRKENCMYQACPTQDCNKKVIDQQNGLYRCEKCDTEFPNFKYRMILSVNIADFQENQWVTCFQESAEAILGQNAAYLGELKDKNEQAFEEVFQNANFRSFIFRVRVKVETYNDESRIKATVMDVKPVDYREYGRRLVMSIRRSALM
Chain of RPA (His-tagged heterotrimer RPA70/RPA32/RPA14) (P15927 whole entry, chain 2 of 3): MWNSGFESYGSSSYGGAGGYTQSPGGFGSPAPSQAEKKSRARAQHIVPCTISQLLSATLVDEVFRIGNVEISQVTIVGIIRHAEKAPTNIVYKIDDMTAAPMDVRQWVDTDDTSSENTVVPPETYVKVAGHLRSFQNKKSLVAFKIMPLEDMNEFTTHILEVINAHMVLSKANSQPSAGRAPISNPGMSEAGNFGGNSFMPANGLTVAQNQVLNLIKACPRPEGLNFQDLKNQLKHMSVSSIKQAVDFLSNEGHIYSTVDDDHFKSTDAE
Chain of RPA (His-tagged heterotrimer RPA70/RPA32/RPA14) (P35244 whole entry, chain 3 of 3): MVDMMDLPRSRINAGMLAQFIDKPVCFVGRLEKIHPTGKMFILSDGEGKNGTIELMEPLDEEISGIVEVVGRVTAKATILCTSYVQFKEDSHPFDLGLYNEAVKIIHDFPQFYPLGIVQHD

T1 sequence (P27694 whole entry): as the sequence (P27694 whole entry, chain 1 of 3) above
T1 sequence (P15927 whole entry partner): as the sequence (P15927 whole entry, chain 2 of 3) above
T1 sequence (P35244 whole entry partner): as the sequence (P35244 whole entry, chain 3 of 3) above
T2 sequence (P27694 whole entry): as the sequence (P27694 whole entry, chain 1 of 3) above
T2 sequence (P15927 whole entry partner): as the sequence (P15927 whole entry, chain 2 of 3) above
T2 sequence (P35244 whole entry partner): as the sequence (P35244 whole entry, chain 3 of 3) above

Molecule: O=C1C=Cc2ccccc2/C1=C/Nc1ccccc1O [HAMNO, (1Z)-1-[(2-hydroxyanilino)methylidene]naphthalen-2-one]
- IC50 for RPA32 phosphorylation (both residues) lower than that of p53 phosphorylation (ATR-ATRIP; RPA32 Ser33 and Thr21 vs p53 Ser15): ~ 10 fold
- ATR-dependent phosphorylation of RPA32 Ser33 and Thr21 (ATR-ATRIP): inhibited
- ATR-dependent phosphorylation of p53 Ser15 (ATR-ATRIP): inhibited
- RPA ssDNA binding (RPA [1]): did not disrupt
- levels of ATR phosphorylation events in treated cells [2]: lower levels of ATR phosphorylation events

Molecule: CCOc1ccc2cc(C3CC(c4ccc(I)cc4)=NN3C(=O)CCCC(=O)O)c(Cl)nc2c1 (stereo not drawn) [TDRL-551]
- IC50 (ATR-ATRIP; read-out: IC50 for ATR-dependent RPA32 Ser33 phosphorylation): 5 to 10 µM
- IC50 (ATR-ATRIP; read-out: IC50 for ATR-dependent RPA32 Thr21 phosphorylation): 5 to 10 µM
- IC50 (ATR-ATRIP; read-out: IC50 for ATR-dependent p53 Ser15 phosphorylation): 5 to 10 µM
- RPA phosphorylation at RPA32 Ser33 and Thr21 at low inhibitor concentration (ATR-ATRIP; low concentrations of inhibitor (Fig. 2C, lane 3), not observed with p53 Ser15): stimulated
- ATR-dependent phosphorylation of RPA32 Ser33 and Thr21 (ATR-ATRIP): dose-dependent inhibition
- ATR-dependent phosphorylation of p53 Ser15 (ATR-ATRIP): titratable inhibition
- IC50 (RPA [3]): ~15 µM

Molecule: CS(=O)(=O)c1ccc(-c2cnc(N)c(C(=O)Nc3ccccc3)n2)cc1 [VE-821]
- ATR-dependent phosphorylation of RPA32 Ser33 and Thr21 (ATR-ATRIP): abolished
- ATR-dependent phosphorylation of p53 Ser15 (ATR-ATRIP): no p53 phosphorylation is observed

Molecule: TTTTTTTTTTTTTTTTTTTTTTTTTTTTTT (ssDNA) [polyT 30mer]
- binding result [4]: binds
